Assay results: US5690906A (The Trustees of the University of Pennsylvania, priority 1995, dated 1997)
Like-named read-outs stand apart in the source and are kept apart here.

Experiments:
D2 dopamine receptor = molecular target: T1, D2 dopamine receptor (Rattus norvegicus, UniProt P61169); assay: Inhibition of [^125 I]NCQ298 binding to D2 dopamine receptors expressed in Sf9 cells; conditions: for HC D2: Table 4, Hill coefficient
T1 construct: made in house; host or cells: Sf9 insect cells infected with recombinant baculovirus (AcMNPVrD2L or AcMNPVrD2S), membrane homogenates
T1 sequence (P61169 whole entry): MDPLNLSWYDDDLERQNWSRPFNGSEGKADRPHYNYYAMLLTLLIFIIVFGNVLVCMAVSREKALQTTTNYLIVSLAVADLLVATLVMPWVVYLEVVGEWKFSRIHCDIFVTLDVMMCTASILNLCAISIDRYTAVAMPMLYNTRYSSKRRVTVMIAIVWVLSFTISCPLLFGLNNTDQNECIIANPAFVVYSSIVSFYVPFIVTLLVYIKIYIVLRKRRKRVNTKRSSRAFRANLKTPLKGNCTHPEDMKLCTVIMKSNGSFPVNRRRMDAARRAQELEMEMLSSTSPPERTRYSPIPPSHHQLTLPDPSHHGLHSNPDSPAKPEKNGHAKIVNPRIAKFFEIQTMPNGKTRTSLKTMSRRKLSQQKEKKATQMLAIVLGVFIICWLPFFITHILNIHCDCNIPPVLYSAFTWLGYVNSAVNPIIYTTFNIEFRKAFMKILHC

D3 dopamine receptor = molecular target: T2, D3 dopamine receptor (Rattus norvegicus, UniProt P19020); assay: Inhibition of [^125 I]NCQ298 binding to D3 dopamine receptors expressed in Sf9 cells; conditions: for HC D3: Table 4, Hill coefficient; for Ratio D2/D3: Ki(D2)/Ki(D3)
T2 construct: made in house; host or cells: Sf9 insect cells infected with recombinant baculovirus AcMNPVrD3, membrane homogenates
T2 sequence (P19020 whole entry): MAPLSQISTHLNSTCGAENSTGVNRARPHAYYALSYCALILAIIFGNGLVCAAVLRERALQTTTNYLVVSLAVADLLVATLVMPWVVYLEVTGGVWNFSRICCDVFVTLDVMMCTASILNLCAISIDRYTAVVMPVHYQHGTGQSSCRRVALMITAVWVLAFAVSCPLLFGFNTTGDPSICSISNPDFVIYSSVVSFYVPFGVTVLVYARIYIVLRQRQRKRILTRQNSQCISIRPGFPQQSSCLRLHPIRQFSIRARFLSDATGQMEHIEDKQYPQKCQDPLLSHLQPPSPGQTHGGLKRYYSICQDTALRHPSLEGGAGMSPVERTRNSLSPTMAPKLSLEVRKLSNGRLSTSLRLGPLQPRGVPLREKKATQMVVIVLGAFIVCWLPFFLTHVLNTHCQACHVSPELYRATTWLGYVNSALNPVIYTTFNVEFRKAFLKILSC
Protocol: The construction of pVL1393-rD3 was previously described. […] An aliquot of membranes was used for radioligand binding.
Membranes from AcMNPV-rD3 infected Sf9 cells were prepared. […] Assays were incubated at 37° C. for 20 min. then filtered and washed as described above.

[1] = molecular target: D3 receptors (expressed in Sf9 cells) (Rattus norvegicus, UniProt P19020); conditions: for Hill Co.: Table 3, [^125 I]trans-7-OH-PIPAT competition; for Hill Co. / Ki: 37° C., 120 mM NaCl; for affinity for the D3 receptor: competition with [^125 I]trans-7-OH-PIPAT; for Ki: ± SE, [^125 I]trans-7-OH-PIPAT 0.1-0.2 nM
Sequence of D3 receptors (expressed in Sf9 cells) (P19020 whole entry): as above
Protocol: Plasmid DNA was isolated by alkaline dialysis and purified by CsCl density gradient centrifugation and overnight dialysis for transfection of Sf9 cells. […] A monolayer of Sf9 cells (approximately 2×10^6 cells/T25 plate) was cotransfected by calcium phosphate precipitation, with 1 mg of AcMNPV DNA (provided by Dr. Max Summers, Texas A&M University, College Station, Tex.) and 2 mg of recombinant transfer vector DNA. […] Putative recombinant viral plaques were chosen by visual screening for occlusion-negative plaques and used to infect 1×10^6 Sf9 cells in a 6-well plate (CoStar, Cambridge, Mass.). Four days after infection, cells were harvested and membranes were prepared. An aliquot of membranes was used for radioligand binding. […] The membrane homogenates of AcMNPVrD3 infected Sf9 cells were prepared as described. Briefly, the harvested cells were centrifuged, resuspended and homogenized in buffer containing 50 mM Tris, pH7.4, 150mM NaCl, 10 mM EDTA and a mixture of protease inhibitors (1 mg/ml aprotinin, 1 mg/ml leupeptin, 1 mg/ml soybean trypsin inhibitor, 10 mg/ml PMSF). The final pellets obtained were resuspended in the same buffer and kept at -20° C. for radioligand binding assays.
Binding assays were performed in glass tubes (12×75 mm) in a final volume of 0.2 ml. The buffer used for the dilution contained 50 mM Tris, pH 7.4, and the protease inhibitors mixture. […] The competition experiments were performed in the presence of 120 mM NaCl. […] After incubation for 30 min at 37° C. or 90 min at 25° C., the bound ligand was separated from the free ligand by filtration through glass fiber filters No. 25 (Schleicher & Schuell, Keene, N.H.) soaked with 0.2% protamine free base. The filters were then washed twice with 4 ml of ice-cold buffer (containing 50 mM Tris-HCl, pH 7.4) and the radioactivity on the filters was counted in a gamma counter (Packard 5000) with 70% efficiency.

[2] = Table 4 and its discussion, [^125 I]-NCQ298 0.05 nM, 37° C., 20 min, read-out: Ki D2
[3] = Table 4 and its discussion, [^125 I]-NCQ298 0.1 nM, 37° C., 20 min, read-out: Ki D3

Ki (D2 dopamine receptor; [2]) | SMILES | HC D2 (D2 dopamine receptor) | HC D3 (D3 dopamine receptor) | Ratio D2/D3 (D3 dopamine receptor; Table 4 and its discussion) | Hill Co. [1] | other results
 | CCCNC1CCc2ccc(OC)cc2C1 (centres unmarked) [7-MeO-MPAT, 7Methoxy-2-N-n-Propylaminotetralin] | 0.96 | 0.97 | 4.0 |  | Ki (D2 dopamine receptor): 5176 ± 0.96 nM; Ki (D3 dopamine receptor): 1310 ± 249 nM
 | CN1CCc2cc(Cl)c(O)cc2[C@@H](c2ccccc2)C1 [SCH23390] |  |  |  | 0.80 | affinity for the D3 receptor [1]: moderate to low affinity
 | CCN1CCC[C@H]1CNC(=O)c1c(O)c(Cl)cc(Cl)c1OC [Raclopride] |  |  |  | 0.78 | Ki [1]: 9.25 ± 2.3 nM
1380 ± 193 nM | CCCN(C/C=C/I)C1CCc2ccc(OC)cc2C1 (centres unmarked) [7-MeO-PIPAT, 7Methoxy-2-[N-3'-(1'-Iodo-1'E-Propenyl)-N-n-Propylamino]tetralin] | 1.22 | 0.93 | 5.4 |  | Ki (D3 dopamine receptor; [3]): 257 ± 31 nM
 | CCCN(CCC)C1CCc2ccc(O)cc2C1 (centres unmarked) [7-OH-DPAT, 7Hydroxy-2-N,N-n-Dipropylaminotetralin, reference compound] | 1.02 | 0.85 |  | 0.87 | affinity for the D3 receptor [1]: high affinity
 | CCCN(CCC)C1CCc2cccc(O)c2C1 (racemic) [8-OH-DPAT, 8-hydroxy-2-(di-n-propylamino)tetralin] |  |  |  | 0.78 | 
1860 ± 261 nM | Oc1ccc2c(c1)CC(NCc1ccccc1)CC2 (centres unmarked) [7-OH-BAT, 7Hydroxy-2-N-n-Benzylaminotetralin] | 0.80 | 1.00 | 4.8 |  | affinity / selectivity for the D3 receptor (D3 dopamine receptor): lowest affinity for the D3 receptor; Ki (D3 dopamine receptor; [3]): 391 ± 47 nM
 | NCCc1c[nH]c2ccc(O)cc12 [5-HT] |  |  |  | 0.90 | Ki [1]: 2340 ± 420 nM

SMILES | Ki (D2 dopamine receptor; [2]) | HC D2 (D2 dopamine receptor) | HC D3 (D3 dopamine receptor) | Ratio D2/D3 (D3 dopamine receptor; Table 4 and its discussion) | Hill Co. [1] | other results
CCCN(CCC)C1CCc2ccc(O)c(I)c2C1 (centres unmarked) [8-I-7-OH-DPAT, 7Hydroxy-8-Iodo-2-N,N-n-Dipropylaminotetralin] | 353 ± 31 nM | 0.92 | 0.85 | 16.6 |  | Ki (D3 dopamine receptor): 21.3 ± 2.9 nM
